This is an account of results in patent EP1147083B1, “ARYLPIPERAZINYL-CYCLOHEXYL INDOLE DERIVATIVES FOR THE TREATMENT OF DEPRESSION” (Wyeth, priority 1999, dated 2000).

Molecules are shown by their SMILES. Like-named read-outs stand apart in the source and are kept apart here.

One experiment addresses T1, serotonin transporter (Rattus norvegicus, UniProt P31652).
T1 construct: from tissue; host or cells: frontal cortex of male Sprague-Dawley rats
Put plainly: Serotonin transporter affinity, 3H-paroxetine binding to frontal cortical membranes. More on the design: species or system male Sprague-Dawley rats. As for the experimental part: Briefly, frontal cortical membranes prepared from male Sprague-Dawley rats were incubated with ^3H-paroxetine (0.1 nM) for 60 minutes at 25°C. […] All reactions are terminated by the addition of ice cold Tris buffer followed by rapid filtration using a Tom Tech filtration device to separate bound from free ^3H-paroxetine.

For experiment [1], the target named is T2, human 5-HT1A receptor subtype (Homo sapiens, UniProt P08908).
T2 construct: expressed in transfected cells
T2 sequence (P08908 1-422): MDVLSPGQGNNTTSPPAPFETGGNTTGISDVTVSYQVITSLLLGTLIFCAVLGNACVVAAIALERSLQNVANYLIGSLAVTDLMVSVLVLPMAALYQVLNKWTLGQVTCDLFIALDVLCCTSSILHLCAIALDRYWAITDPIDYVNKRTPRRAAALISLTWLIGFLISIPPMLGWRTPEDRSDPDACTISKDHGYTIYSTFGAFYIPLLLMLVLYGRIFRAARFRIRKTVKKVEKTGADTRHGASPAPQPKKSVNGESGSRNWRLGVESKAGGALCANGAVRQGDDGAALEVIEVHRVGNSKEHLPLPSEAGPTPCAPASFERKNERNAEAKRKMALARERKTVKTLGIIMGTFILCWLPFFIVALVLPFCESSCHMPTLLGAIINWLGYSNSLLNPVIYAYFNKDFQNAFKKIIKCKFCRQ
Put plainly: 5-HT1A receptor binding assay with [3H]8-OH-DPAT on CHO cell membranes. To be noted: [3H]8-OH-DPAT 1.5 nM. As for the experimental part: (§1) The PCR cloning of the human 5-HT1A receptor subtype from a human genomic library has been described previously Chanda et al., Mol. Pharmacol., 43:516 (1993). A stable Chinese hamster ovary cell line expressing the human 5-HT1A receptor subtype (5-HT1A.CHO cells) was employed throughout this study. Cells were maintained in DMEM supplemented with 10% foetal calf serum, non-essential amino acids and penicillin/ streptomycin.
Cells were grown to 95-100% confluency as a monolayer before membranes were harvested for binding studies. Cells were gently scraped from the culture plates, transferred to centrifuge tubes, and washed twice by centrifugation (2000 rpm for 10 min., 4°C) in buffer (50 mM Tris; pH 7.5). The resulting pellets were aliquoted and placed at -80°C. On the day of assay, the cells were thawed on ice, and resuspended in buffer. Studies were conducted using [^3H]8-OH-DPAT as the radioligand. The binding assay was performed in 96 well microtiter plates in a final total volume of 250 µL of buffer. Competition experiments were performed by using 7 concentrations of unlabelled drug and a final ligand concentration of 1.5 nM. Nonspecific binding was determined in the presence of 10 µM 5HT. Saturation analysis was conducted by using [^3H]8-OH-DPAT at concentrations ranging from 0.3-30 nM. Following a 30 minute incubation at room temperature, the reaction was terminated by the addition of ice cold buffer and rapid filtration using a M-96 Brandel Cell Harvester (Gaithersburg, MD) through a GF/B filter presoaked for 30 minutes in 0.5% polyethyleneimine.

The target in experiment [2] is T3, human 5-HT1A receptor subtype (5-HT1A.CHO cells) (Homo sapiens, UniProt P08908).
T3 construct: expressed in transfected cells
T3 sequence (P08908 1-422): T2 sequence (P08908 1-422)
Briefly: cAMP formation in forskolin-treated cells (cAMP SPA assay). The class given is cell-based. To be noted: value in brackets; forskolin 1 uM. As for the experimental part: as §1
The following assays were performed by incubating the cells with DMEM containing 25 mM HEPES, 5 mM theophylline and 10 µM pargyline for a period of 20 minutes at 37°C. Functional activity was assessed by treating the cells with forskolin (1 uM final concentration) followed immediately by test compound (6 concentrations) for an additional 10 minutes at 37°C. In separate experiments, 6 concentrations of antagonist were preincubated for 20 minutes prior to the addition of 10 nM 8-OH-DPAT and forskolin. The reaction was terminated by removal of the media and addition of 0.5 ml ice cold assay buffer. Plates were stored at -20°C prior to assessment of cAMP formation by a cAMP SPA assay (Amersham).

Experiment [3] has as its target T4, 5-HT1A cloned receptor membrane fragments (Homo sapiens, UniProt P08908).
T4 construct: expressed in transfected cells
T4 sequence (P08908 1-422): T2 sequence (P08908 1-422)
Put plainly: [35S]-GTPγS binding assay. The class given is biochemical. To be noted: value in brackets, or a lone % in the cell; maximum agonist response defined by excess 8-OH-DPAT; read-out: GTPγS (%EMax). As for the experimental part: The [^35S]-GTPγS binding assay was similar to that used by Lazareno and Birdsall, Br. J. Pharmacol. 109:1120 (1993). Briefly, 5-HT1A cloned receptor membrane fragments (as used for 5-HT1A receptor binding assays) were stored at -70°C until needed. When needed, membranes were rapidly thawed, centrifuged at 40,000 x g for 10 minutes and resuspended at 4 °C for 10 minutes in assay buffer (25 mM HEPES, 3 mM MgCl2, 100 mM NaCl, 1 mM EDTA, 10 uM GDP, […], pH 8.0). These membranes were then incubated for 30 minutes at 30°C with [^35S]GTPgS (1 nM) in the presence of vehicle, test compound (one to eight concentrations), or excess 8-OH-DPAT to define maximum agonist response. All reactions are terminated by the addition of ice cold Tris buffer followed by rapid filtration using a Tom Tech® filtration device to separate bound from free [^35S]GTPgS. Agonists produce an increase in the amount of [^35S]GTPgS bound whereas antagonists produce no increase in binding. Bound radioactivity was counted and analyzed as above.
On the technique in general: GTPγS resists hydrolysis and so accumulates on activated G proteins.

[4] abbreviates: 3H-paroxetine 0.1 nM, rat frontal cortical membranes, read-out: ST (Kj, nM,).

For orientation: Emax means the maximal effect, on the per cent scale that the assay sets.

T1 sequence (P31652 whole entry): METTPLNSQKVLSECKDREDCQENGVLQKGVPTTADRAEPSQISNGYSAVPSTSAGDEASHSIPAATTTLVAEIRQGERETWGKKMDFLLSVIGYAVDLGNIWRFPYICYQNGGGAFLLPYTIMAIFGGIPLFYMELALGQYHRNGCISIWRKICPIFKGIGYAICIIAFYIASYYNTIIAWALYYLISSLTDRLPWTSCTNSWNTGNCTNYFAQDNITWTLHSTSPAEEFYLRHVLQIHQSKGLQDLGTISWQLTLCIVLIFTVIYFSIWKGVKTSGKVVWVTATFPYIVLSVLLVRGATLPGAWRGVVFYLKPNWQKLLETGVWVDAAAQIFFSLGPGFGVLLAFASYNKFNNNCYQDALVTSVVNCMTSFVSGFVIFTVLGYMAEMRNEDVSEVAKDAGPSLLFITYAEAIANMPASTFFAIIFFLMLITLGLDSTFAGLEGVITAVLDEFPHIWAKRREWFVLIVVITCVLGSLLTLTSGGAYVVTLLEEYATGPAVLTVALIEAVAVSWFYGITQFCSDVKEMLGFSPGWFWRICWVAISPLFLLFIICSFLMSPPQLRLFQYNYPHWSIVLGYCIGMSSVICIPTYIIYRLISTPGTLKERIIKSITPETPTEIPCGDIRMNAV

At serotonin transporter, `Cn1cc([C@H]2CC[C@@H](N3CCN(c4cccc5[nH]ccc45)CC3)CC2)c2cc(F)ccc21` [Example 38, 5-Fluoro-3-{cis-4-[4-(1H-indol-4-yl)-piperazinyl]-cyclohexyl}-1-methyl-1H-indole] yielded a Ki of 7.22 nM.
With `COc1ccc(F)cc1N1CCN([C@H]2CC[C@H](c3c[nH]c4ccc(F)cc43)CC2)CC1` [Example 22b, 5-Fluoro-3-{(trans)-4-[4-(5-fluoro-2-methoxy-phenyl)-piperazin-1-yl]-cyclohexyl}-1H-indole], the Ki in experiment [1] came to 11.6 nM; at serotonin transporter (setting [4]) it was 36.5 nM. Further, the Emax in experiment [2] stood at 0%; in experiment [3], 4.5%.
`Fc1cc2c(c(N3CCN([C@H]4CC[C@@H](c5c[nH]c6ccc(F)cc65)CC4)CC3)c1)OCCC2` [Example 31a, 5-Fluoro-3-{(1,4-cis)-4-[4-(6-fluoro-chroman-8-yl)-piperazin-1-yl]-cyclohexyl}-1H-indole]: the Ki in experiment [1] came to 142 nM; at serotonin transporter it was 13 nM.
For `COc1ccc(F)cc1N1CCN([C@H]2CC[C@@H](c3c[nH]c4ccc(F)cc43)CC2)CC1` [Example 22a, 5-Fluoro-3-{(cis)-4-[4-(5-fluoro-2-methoxy-phenyl)-piperazin-1-yl]-cyclohexyl}-1H-indole], the results for the Ki (in experiment [1]; at serotonin transporter (setting [4])) were 80.7 nM and 4.96 nM, respectively. The maximum response (Emax) in experiment [2] and in experiment [3] was 0% in each case.
For the compound `COc1ccccc1N1CCN([C@H]2CC[C@@H](c3c[nH]c4ccc(F)cc43)CC2)CC1` [Example 18, 5-Fluoro-3-{(cis)-4-[4-(2-methoxy-phenyl)-piperazin-1-yl] -cyclohexyl}-1H-indole], the Ki was 129 nM in experiment [1] and 1.36 nM on serotonin transporter (setting [4]).
Take `Cn1ccc2c(N3CCN([C@H]4CC[C@@H](c5cn(C)c6cc(F)ccc65)CC4)CC3)cccc21` [Example 11, 6-Fluoro-1-methyl-3-{cis-4-[4-(1-methyl-1H-indol-4-yl)-1-piperazinyl]cyclohexyl}-1H-indole]: at serotonin transporter (setting [4]), the Ki amounted to 40 nM.
For `COc1ccccc1N1CCN(C2CC=C(c3c[nH]c4ccc(F)cc34)CC2)CC1` (stereo not drawn) [Example 35, 5-Fluoro-3-{4-[4-(2-methoxy-phenyl)-piperazin-1-yl]cyclohex-1-enyl}-1H-indole], the figures for the Ki (in experiment [1]; at serotonin transporter (setting [4])) were 70.1 nM and 91 nM, respectively.
Regarding `N#Cc1ccc2[nH]cc(C3=CCC(N4CCN(c5cccc6[nH]ccc56)CC4)CC3)c2c1` (stereo not drawn) [Example 36, 3-{4-[4-(1H-Indol-4-yl)-piperazin-1-yl]-cyclohex-1-enyl}-1H-indole-5-carbonitrile], the Ki in experiment [1] is 12.3 nM; on serotonin transporter (setting [4]), 28 nM. Also, the Emax in experiment [2] is 80%; in experiment [3] it was 53%.
For the compound `Clc1ccc2[nH]cc([C@H]3CC[C@@H](N4CCN(c5cccc6[nH]ccc56)CC4)CC3)c2c1` [Example 6a, 5-Chloro-3-[cis-4-[4-(1H-indol-4-yl)-1-piperazinyl]cyclohexyl]-1H-indole], the Ki in experiment [1] stood at 326 nM; at serotonin transporter (setting [4]), 28 nM. In addition, the Emax turned out to be 80% in experiment [2] and 53% in experiment [3].
